One test deals with full-length human BTK (Homo sapiens (Human), UniProt Q06187). The experiment in a line: BTK IC50 Enzyme Assay (microfluidic off-chip mobility shift kinase assay).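 Also: Read-out separates phosphorylated peptide product from substrate by their charge-to-mass difference, with IC50 fitted from log inhibitor concentration against percent enzyme activity.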 It counts as biochemical. The following applies: Btk Enzymatic IC50 Assay, 90 min at 27 C.
Test [1] has as its target T1, Btk (Homo sapiens (Human), UniProt Q06187). The experiment in a line: Time Dependent Human Whole Blood IC50 Assay. The following applies: read-out: Assay C (IC50). It counts as cell-based.
Test [2] deals with T1, Btk. Put plainly: Btk PBMC IC50 Cell Assay (anti-IgM-induced CD69 expression on B cells).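 Also: freshly isolated human PBMCs, IC50 from concentration-response of the share of CD19+ cells expressing CD69 after anti-IgM BCR stimulation.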 It is filed as cell-based. The following applies: anti-IgM-induced CD69 expression on CD19 positive cells in human PBMCs.

The values that follow come from patent US12415803B2, “Fused imidazopyridines as reversible inhibitors of Brutons Tyrosine Kinase (BTK)” (Merck Patent GmbH, priority 2018, dated 2025).

full-length human BTK, sequence (Q06187 whole entry): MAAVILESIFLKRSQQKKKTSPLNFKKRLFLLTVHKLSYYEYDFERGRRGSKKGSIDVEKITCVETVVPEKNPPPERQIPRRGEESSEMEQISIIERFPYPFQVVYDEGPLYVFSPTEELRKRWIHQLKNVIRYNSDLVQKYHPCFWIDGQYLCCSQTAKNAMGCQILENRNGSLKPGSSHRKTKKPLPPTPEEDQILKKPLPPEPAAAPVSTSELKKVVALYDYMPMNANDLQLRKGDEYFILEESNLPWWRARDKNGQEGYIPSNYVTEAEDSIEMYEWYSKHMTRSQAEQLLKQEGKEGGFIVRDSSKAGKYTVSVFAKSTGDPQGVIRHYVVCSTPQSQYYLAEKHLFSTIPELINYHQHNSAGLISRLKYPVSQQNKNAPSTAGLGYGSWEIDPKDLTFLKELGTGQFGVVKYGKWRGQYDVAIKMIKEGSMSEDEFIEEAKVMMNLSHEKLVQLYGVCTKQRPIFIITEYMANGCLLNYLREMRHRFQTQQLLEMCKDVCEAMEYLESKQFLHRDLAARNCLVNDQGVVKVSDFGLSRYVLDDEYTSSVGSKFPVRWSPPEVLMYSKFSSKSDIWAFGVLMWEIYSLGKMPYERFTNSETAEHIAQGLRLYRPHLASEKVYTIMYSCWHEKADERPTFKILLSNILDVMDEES
T1 sequence (Q06187 whole entry): as above

Take `Cc1nn(C)c(C)c1-c1nc2c(-c3ccc4c(c3)CCCC[C@H]4NC(=O)c3nnc(C(C)(C)C)o3)ccnc2[nH]1` [Compound 121, 5-tert-Butyl-[1,3,4]oxadiazole-2-carboxylic acid {(R)-2-[2-(1,3,5-trimethyl-1H-pyrazol-4-yl)-3H-imidazo[4,5-b]pyridin-7-yl]-6,7,8,9-tetrahydro-5H-benzocyclohepten-5-yl}-amide]: the IC50 (as a rule, the concentration at which inhibition is half-maximal) on full-length human BTK is below 1 nM; on Btk [1] it was 10 to 100 nM; against Btk [2], 1 to 10 nM.

On to `Cc1nn(C)c(C)c1-c1nc2c(-c3ccc4c(c3)CCCC[C@H]4NC(=O)c3nc(C4(C)CC4)no3)ccnc2[nH]1` [Compound 123, 3-(1-Methyl-cyclopropyl)-[1,2,4]oxadiazole-5-carboxylic acid {(R)-2-[2-(1,3,5-trimethyl-1H-pyrazol-4-yl)-3H-imidazo[4,5-b]pyridin-7-yl]-6,7,8,9-tetrahydro-5H-benzocyclohepten-5-yl}-amide], for which the concentration for half-maximal inhibition (IC50) at full-length human BTK was below 1 nM; on Btk [1] it was 1 to 10 nM; at Btk [2], 1 to 10 nM.

For the molecule `CCc1cc(-c2nc3c(-c4ccc5c(c4)CCCCC5NC(=O)c4nnc(C(C)(C)C)o4)ccnc3[nH]2)nn1C` (stereo not drawn) [Compound 131, 5-tert-Butyl-[1,3,4]oxadiazole-2-carboxylic acid {2-[2-(5-ethyl-1-methyl-1H-pyrazol-3-yl)-3H-imidazo[4,5-b]pyridin-7-yl]-6,7,8,9-tetrahydro-5H-benzocyclohepten-5-yl}-amide], the values for the IC50 at full-length human BTK, at Btk [1] and against Btk [2] were below 1 nM, 10 to 100 nM and 1 to 10 nM, respectively.

For `Cc1nn(C(C)C)cc1-c1nc2c(-c3ccc4c(c3)CCCCC4NC(=O)c3nc(C(C)(C)C)no3)ccnc2[nH]1` (stereo not drawn) [Compound 132, 3-tert-Butyl-[1,2,4]oxadiazole-5-carboxylic acid {2-[2-(1-isopropyl-3-methyl-1H-pyrazol-4-yl)-3H-imidazo[4,5-b]pyridin-7-yl]-6,7,8,9-tetrahydro-5H-benzocyclohepten-5-yl}-amide], the IC50 on full-length human BTK, on Btk [1] and against Btk [2] was 1 to 10 nM in each case.

With `CCc1cc(-c2nc3c(-c4ccc5c(c4)CCCCC5NC(=O)c4nc(C(C)(C)C)no4)ccnc3[nH]2)nn1C` (stereo not drawn) [Compound 133, 3-tert-Butyl-[1,2,4]oxadiazole-5-carboxylic acid {2-[2-(5-ethyl-1-methyl-1H-pyrazol-3-yl)-3H-imidazo[4,5-b]pyridin-7-yl]-6,7,8,9-tetrahydro-5H-benzocyclohepten-5-yl}-amide], the IC50 at full-length human BTK is below 1 nM; on Btk [1], 1 to 10 nM; on Btk [2] it was 1 to 10 nM.

Turning to `Cc1nn(C(C)C)cc1-c1nc2c(-c3ccc4c(c3)CCCCC4NC(=O)c3nc(C4(C)CC4)no3)ccnc2[nH]1` (stereo not drawn) [Compound 134, 3-(1-Methyl-cyclopropyl)-[1,2,4]oxadiazole-5-carboxylic acid {2-[2-(1-isopropyl-3-methyl-1H-pyrazol-4-yl)-3H-imidazo[4,5-b]pyridin-7-yl]-6,7,8,9-tetrahydro-5H-benzocyclohepten-5-yl}-amide], the values for the IC50 on full-length human BTK, at Btk [1] and at Btk [2] were below 1 nM, 1 to 10 nM and 1 to 10 nM, respectively.

Consider `CCn1nc(C)c(-c2nc3c(-c4ccc5c(c4)CCCCC5NC(=O)c4nc(C5(C)CC5)no4)ccnc3[nH]2)c1C` (stereo not drawn) [Compound 135, 3-(1-Methyl-cyclopropyl)-[1,2,4]oxadiazole-5-carboxylic acid {2-[2-(1-ethyl-3,5-dimethyl-1H-pyrazol-4-yl)-3H-imidazo[4,5-b]pyridin-7-yl]-6,7,8,9-tetrahydro-5H-benzocyclohepten-5-yl}-amide], for which the concentration for half-maximal inhibition (IC50) on full-length human BTK is below 1 nM; at Btk [1] it was 1 to 10 nM; against Btk [2], 1 to 10 nM.

Turning to `Cc1c(-c2nc3c(-c4ccc5c(c4)CCCCC5NC(=O)c4nc(C(C)(C)C)no4)ccnc3[nH]2)cnn1C(C)C` (stereo not drawn) [Compound 136, 3-tert-Butyl-[1,2,4]oxadiazole-5-carboxylic acid {2-[2-(1-isopropyl-5-methyl-1H-pyrazol-4-yl)-3H-imidazo[4,5-b]pyridin-7-yl]-6,7,8,9-tetrahydro-5H-benzocyclohepten-5-yl}-amide], the IC50 at full-length human BTK is below 1 nM; on Btk [1], 10 to 100 nM; against Btk [2] it was 1 to 10 nM.

`Cc1nn(C2CCOCC2)c(C)c1-c1nc2c(-c3ccc4c(c3)CCCC4NC(=O)c3nc(C(C)(C)C)no3)ccnc2[nH]1` (stereo not drawn) [Compound 140, 3-tert-Butyl-[1,2,4]oxadiazole-5-carboxylic acid (6-{2-[3,5-dimethyl-1-(tetrahydro-pyran-4-yl)-1H-pyrazol-4-yl]-3H-imidazo[4,5-b]pyridin-7-yl}-1,2,3,4-tetrahydro-naphthalen-1-yl)-amide]: the results for the IC50 at full-length human BTK, at Btk [1] and on Btk [2] were below 1 nM, above 100 nM and 10 to 100 nM, respectively.

With `Cc1nn(C)c(C)c1-c1nc2c(-c3ccc4c(c3)CCCC[C@H]4NC(=O)c3nc(C(C)(C)C)no3)ccnc2[nH]1` [Compound 142, 3-tert-Butyl-[1,2,4]oxadiazole-5-carboxylic acid {(R)-2-[2-(1,3,5-trimethyl-1H-pyrazol-4-yl)-3H-imidazo[4,5-b]pyridin-7-yl]-6,7,8,9-tetrahydro-5H-benzocyclohepten-5-yl}-amide], the 50% inhibitory concentration (IC50) at full-length human BTK was below 1 nM; at Btk [1], 1 to 10 nM; at Btk [2] it was 1 to 10 nM.

In the case of `Cc1nn(C)c(C)c1-c1nc2c(-c3ccc4c(c3)CCCCC4NC(=O)c3nc(C4(C)CC4)no3)ccnc2[nH]1` (stereo not drawn) [Compound 143, 3-(1-Methyl-cyclopropyl)-[1,2,4]oxadiazole-5-carboxylic acid {2-[2-(1,3,5-trimethyl-1H-pyrazol-4-yl)-3H-imidazo[4,5-b]pyridin-7-yl]-6,7,8,9-tetrahydro-5H-benzocyclohepten-5-yl}-amide], the figures for the IC50 on full-length human BTK, on Btk [1] and at Btk [2] were below 1 nM, 10 to 100 nM and 1 to 10 nM, respectively.

For `Cc1c(-c2nc3c(-c4ccc5c(c4)CCCC5NC(=O)c4nc(C5(C)CC5)no4)ccnc3[nH]2)cnn1C1CCOCC1` (stereo not drawn) [Compound 148, 3-(1-Methyl-cyclopropyl)-[1,2,4]oxadiazole-5-carboxylic acid (6-{2-[5-methyl-1-(tetrahydro-pyran-4-yl)-1H-pyrazol-4-yl]-3H-imidazo[4,5-b]pyridin-7-yl}-1,2,3,4-tetrahydro-naphthalen-1-yl)-amide], the IC50 on full-length human BTK was below 1 nM; on Btk [1], 10 to 100 nM; on Btk [2] it was 10 to 100 nM.

Take `Cc1c(-c2nc3c(-c4ccc5c(c4)CCCC5NC(=O)c4noc(C(C)(C)C)n4)ccnc3[nH]2)cnn1C(C)C` (stereo not drawn) [Compound 149, 5-tert-Butyl-[1,2,4]oxadiazole-3-carboxylic acid {6-[2-(1-isopropyl-5-methyl-1H-pyrazol-4-yl)-3H-imidazo[4,5-b]pyridin-7-yl]-1,2,3,4-tetrahydro-naphthalen-1-yl}-amide]: the values for the IC50 on full-length human BTK, at Btk [1] and against Btk [2] were below 1 nM, 10 to 100 nM and 1 to 10 nM, respectively.

`Cc1c(-c2nc3c(-c4ccc5c(c4)CCCC5NC(=O)c4noc(C(C)(C)C)n4)ccnc3[nH]2)cnn1C1CCOCC1` (stereo not drawn) [Compound 150, 5-tert-Butyl-[1,2,4]oxadiazole-3-carboxylic acid (6-{2-[5-methyl-1-(tetrahydro-pyran-4-yl)-1H-pyrazol-4-yl]-3H-imidazo[4,5-b]pyridin-7-yl}-1,2,3,4-tetrahydro-naphthalen-1-yl)-amide]: the IC50 on full-length human BTK was below 1 nM; at Btk [1], 1 to 10 nM; against Btk [2] it was 1 to 10 nM.

For `Cc1cc(-c2nc3c(-c4ccc5c(c4)CCCC[C@H]5NC(=O)c4nnc(C(C)(C)C)o4)ccnc3[nH]2)nn1C` [Compound 153, 5-tert-Butyl-[1,3,4]oxadiazole-2-carboxylic acid {(R)-2-[2-(1,5-dimethyl-1H-pyrazol-3-yl)-3H-imidazo[4,5-b]pyridin-7-yl]-6,7,8,9-tetrahydro-5H-benzocyclohepten-5-yl}-amide], the IC50 at full-length human BTK was below 1 nM; at Btk [1], 1 to 10 nM; on Btk [2], 1 to 10 nM.

Consider `Cc1c(-c2nc3c(-c4ccc5c(c4)CCC[C@@H]5NC(=O)c4nc(C5(C)CC5)no4)ccnc3[nH]2)cnn1C1CCOCC1` [Compound 155, 3-(1-Methyl-cyclopropyl)-[1,2,4]oxadiazole-5-carboxylic acid ((S)-6-{2-[5-methyl-1-(tetrahydro-pyran-4-yl)-1H-pyrazol-4-yl]-3H-imidazo[4,5-b]pyridin-7-yl}-4-yl]-3H-imidazo[4,5-1,2,3,4-tetrahydro-naphthalen-1-yl)-amide], for which the IC50 on full-length human BTK was below 1 nM; at Btk [1], 10 to 100 nM; on Btk [2], 1 to 10 nM.

Take `Cc1c(-c2nc3c(-c4ccc5c(c4)CCC[C@@H]5NC(=O)c4noc(C(C)(C)C)n4)ccnc3[nH]2)cnn1C1CCOCC1` [Compound 157, 5-tert-Butyl-[1,2,4]oxadiazole-3-carboxylic acid ((S)-6-{2-[5-methyl-1-(tetrahydro-pyran-4-yl)-1H-pyrazol-4-yl]-3H-imidazo[4,5-b]pyridin-7-yl}-1,2,3,4-tetrahydro-naphthalen-1-yl)-amide]: the IC50 on full-length human BTK is below 1 nM; on Btk [1] it was 1 to 10 nM; against Btk [2], 1 to 10 nM.

With `Cc1c(-c2nc3c(-c4ccc5c(c4)CCCC[C@H]5NC(=O)c4nc(C(C)(C)C)no4)ccnc3[nH]2)cnn1C(C)C` [Compound 160, 3-tert-Butyl-[1,2,4]oxadiazole-5-carboxylic acid {(R)-2-[2-(1-isopropyl-5-methyl-1H-pyrazol-4-yl)-3H-imidazo[4,5-b]pyridin-7-yl]-6,7,8,9-tetrahydro-5H-benzocyclohepten-5-yl}-amide], the 50% inhibitory concentration (IC50) was below 1 nM on full-length human BTK, 1 to 10 nM on Btk [1] and 1 to 10 nM against Btk [2].

Turning to `Cc1c(-c2nc3c(-c4ccc5c(c4)CCC[C@H]5NC(=O)c4noc(C(C)(C)C)n4)ccnc3[nH]2)cnn1C(C)C` [Compound 164, 5-tert-Butyl-[1,2,4]oxadiazole-3-carboxylic acid {(R)-6-[2-(1-isopropyl-5-methyl-1H-pyrazol-4-yl)-3H-imidazo[4,5-b]pyridin-7-yl]-1,2,3,4-tetrahydro-naphthalen-1-yl}-amide], the figures for the IC50 on full-length human BTK, at Btk [1] and against Btk [2] were 1 to 10 nM, above 100 nM and 1 to 10 nM, respectively.
